Measured values reported in publication PMC12352620, “Fragment-based discovery of dual ligand pharmacophores for lipid-sensing transcription factors for designed polypharmacology” (RSC Medicinal Chemistry, 2025).

Key:
Format in all cases: cell-based
THRα = biological target: T1, THRα (Homo sapiens, UniProt P10827); experiment: Gal4-hybrid reporter gene assay THRα; details: HEK293T, Gal4-hybrid reporter; Inactive = tested 1–300 μM; mean ± S.E.M., n ≥ 3
T1 construct: expressed in transfected cells; host or cells: HEK293T
T1 sequence (P10827 128-410 isoform P10827-2 limits assumed): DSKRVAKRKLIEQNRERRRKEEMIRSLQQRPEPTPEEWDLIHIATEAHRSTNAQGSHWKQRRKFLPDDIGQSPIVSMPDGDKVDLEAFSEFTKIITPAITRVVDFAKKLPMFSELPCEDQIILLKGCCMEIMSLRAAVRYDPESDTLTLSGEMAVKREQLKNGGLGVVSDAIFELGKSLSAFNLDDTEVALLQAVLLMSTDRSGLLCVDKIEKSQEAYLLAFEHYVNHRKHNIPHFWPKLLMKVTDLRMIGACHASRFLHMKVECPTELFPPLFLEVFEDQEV
Procedure: (§1) NR modulation was determined as described previously[45] in Gal4 hybrid reporter gene assays in HEK293T cells (German Collection of Microorganisms and Cell Culture GmbH, DSMZ) using pFR-Luc (Stratagene, La Jolla, CA, USA; reporter), pRL-SV40 (Promega, Madison, WI, USA; internal control) and the hybrid receptor clones pFA-CMV-hTHRα-LBD,[46] pFA-CMV-hPPARγ-LBD,[47] pFA-CMV-hFXR-LBD,[48] and pFA-CMV-hRXRα-LBD,[49] coding for the hinge region and ligand binding domain of the canonical isoform of the respective NR. Cells were cultured in Dulbecco's modified Eagle's medium (DMEM), high glucose supplemented with 10% fetal calf serum (FCS), sodium pyruvate (1 mM), penicillin (100 U mL^−1), and streptomycin (100 μg mL^−1) at 37 °C and 5% CO2 and seeded in 96-well plates (3 × 10^4 cells per well). After 24 h, medium was changed to Opti-MEM without supplements and cells were transiently transfected using Lipofectamine LTX reagent (Invitrogen, Carlsbad, CA, USA) according to the manufacturer's protocol. Five hours after transfection, cells were incubated with the test compounds in Opti-MEM supplemented with penicillin (100 U mL^−1), streptomycin (100 μg mL^−1) and 0.1% DMSO for 16 h before luciferase activity was measured using the Dual-Glo Luciferase Assay System (Promega) according to the manufacturer's protocol on a Tecan Spark luminometer (Tecan Deutschland GmbH, Crailsheim, Germany). Firefly luminescence was divided by Renilla luminescence and multiplied by 1000 resulting in relative light units (RLU) to normalize for transfection efficiency and cell growth. Fold activation was obtained by dividing the mean RLU of test compound by the mean RLU of the untreated control. All samples were tested in at least three biologically independent experiments in duplicates. For dose–response curve fitting and calculation of EC50 values, the equation “[agonist] vs. response − variable slope (four parameters)” was used in GraphPad Prism (version 7.00, GraphPad Software, La Jolla, CA, USA). For selectivity profiling, the hybrid reporter gene assay was performed with Gal4 fusion receptor plasmids for RARα, PPARα, PPARδ, VDR, CAR and LXRα. The following reference agonists were used: triiodothyronine (1 μM, THR), all-trans retinoic acid (1 μM, RAR), GW7647 (1 μM, PPARα), pioglitazone (1 μM, PPARγ), L165041 (1 μM, PPARδ), calcitriol (1 μM, VDR), CITCO (1 μM, CAR), T0901317 (1 μM, LXR), GW4064 (1 μM, FXR), bexarotene (1 μM, RXR).

FXR = biological target: T2, FXR (Homo sapiens, UniProt Q96RI1); experiment: Gal4-hybrid reporter gene assay FXR; details: HEK293T, Gal4-hybrid reporter; Inactive = tested 1–300 μM; mean ± S.E.M., n ≥ 3
T2 construct: expressed in transfected cells; host or cells: HEK293T
T2 sequence (Q96RI1 262-486 limits assumed): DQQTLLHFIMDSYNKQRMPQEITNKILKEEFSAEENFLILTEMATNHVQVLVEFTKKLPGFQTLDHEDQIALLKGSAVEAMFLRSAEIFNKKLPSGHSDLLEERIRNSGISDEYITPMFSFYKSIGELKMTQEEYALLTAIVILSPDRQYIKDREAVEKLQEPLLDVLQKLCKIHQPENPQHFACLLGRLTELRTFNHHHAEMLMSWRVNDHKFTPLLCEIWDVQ
Procedure: as §1

RXRα = biological target: T3, RXRα (Homo sapiens, UniProt P19793); experiment: Gal4-hybrid reporter gene assay RXRα; details: mean ± S.E.M., n ≥ 3
T3 construct: expressed in transfected cells; host or cells: HEK293T
T3 sequence (P19793 227-458 limits assumed): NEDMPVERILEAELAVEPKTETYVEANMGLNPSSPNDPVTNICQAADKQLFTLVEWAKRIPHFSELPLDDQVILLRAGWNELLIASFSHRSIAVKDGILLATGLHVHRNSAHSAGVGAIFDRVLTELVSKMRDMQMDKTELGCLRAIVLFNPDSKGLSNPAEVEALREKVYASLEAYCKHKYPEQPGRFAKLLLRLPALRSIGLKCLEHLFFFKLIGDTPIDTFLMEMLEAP
Procedure: as §1

PPARγ = biological target: T4, PPARγ (Homo sapiens, UniProt P37231); experiment: Gal4-hybrid reporter gene assay PPARγ; details: mean ± S.E.M., n ≥ 3; for EC50: HEK293T, Gal4-hybrid reporter, Inactive = tested 1–300 μM; for max. fold activation PPARγ: maximum reporter activation vs DMSO (0.1%) treated cells
T4 construct: expressed in transfected cells; host or cells: HEK293T
T4 sequence (P37231 238-503 limits assumed): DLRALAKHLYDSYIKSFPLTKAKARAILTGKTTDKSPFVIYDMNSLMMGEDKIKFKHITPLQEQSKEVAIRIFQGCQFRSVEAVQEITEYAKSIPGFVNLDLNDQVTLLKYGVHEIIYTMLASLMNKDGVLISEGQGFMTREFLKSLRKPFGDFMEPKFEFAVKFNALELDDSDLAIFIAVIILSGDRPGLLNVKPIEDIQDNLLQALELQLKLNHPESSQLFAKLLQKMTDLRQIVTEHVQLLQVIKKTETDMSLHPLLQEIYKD
Procedure: as §1

[1] = HEK293T, Gal4-hybrid reporter, Inactive = tested 1–300 μM

| EC50 THRα (THRα) | EC50 FXR (FXR) | EC50 (RXRα; [1]) [µM] | max. fold activation RXRα (RXRα; maximum reporter activation vs DMSO (0.1%) treated cells) | EC50 (PPARγ) [µM] | max. fold activation PPARγ (PPARγ) | EC50 RXRα (RXRα; [1]) | Structure (SMILES) |
| --- | --- | --- | --- | --- | --- | --- | --- |
| Inactive | Inactive | 129 ± 11 | (22.5 ± 1.5-fold) | 106 ± 5 | (25.0 ± 0.8-fold) |  | O=C(O)CCCC#Cc1ccccc1 [2.27] |
| Inactive | Inactive |  |  | 34 ± 7 | (8.2 ± 0.5-fold) | Inactive | O=C(O)/C=C/C(=O)c1cccc(Cl)c1 [2.16] |
